# Experimental data published in PMC5175396, “Cytotoxicity of Plumbagin, Rapanone and 12 other naturally occurring Quinones from Kenyan Flora towards human carcinoma cells” (BMC Pharmacology & Toxicology, 2016).
# Tests used:
# [1] = tested on: six tested cancer cell lines (A549, SPC212, DLD-1, Caco-2, MCF-7, HepG2); assay: Neutral red uptake assay, statements over the six tested cancer cell lines; assay type: cell-based, human
# Description: (§1) Six human cancer cell lines and one normal cell line were used in this study. They included A549 human non-small cell lung cancer (NSCLC) cell line, obtained from the Institute for Fermentation, Osaka (IFO, Japan) and provided by Prof. Dr. Tansu Koparal (Anadolu University, Eskisehir, Turkey), SPC212 human mesothelioma cell line obtained from American Type Culture Collection (ATCC) and provided by Dr. Asuman Demiroğlu Zergeroğlu (Gebze Technical University, Kocaeli, Turkey), DLD-1 colorectal adenocarcinoma cell lines obtained from ATCC (CCL-221), Caco2 colorectal adenocarcinoma cells (ATCC, HTB-37) obtained from the ŞAP Institute of Turkey (Ankara), HepG2 hepatocarcinoma cells (ATCC, HB-8065) and MCF-7 breast adenocarcinoma cells (ATCC, HTB-22) were provided by Prof. Dr. Tansu Koparal (Anadolu University, Eskisehir, Turkey). The normal CRL2120 human skin fibroblasts were obtained from ATCC [CCD1094Sk (ATCC, CRL-2120)]. The cells were maintained as a monolayer in DMEM medium (Sigma-aldrich, Munich, Germany) medium supplemented with 10% fetal calf serum and 1% penicillin (100 U/mL)-streptomycin (100 μg/mL) in a humidified 5% CO2 atmosphere at 37 °C.
# (§2) The cytotoxicity of samples was performed by NR uptake assay as previously described. This method is based on the ability of viable cells to incorporate and bind the supravital dye NR in the lysosomes. The procedure is cheaper and more sensitive than other cytotoxicity tests. […] Briefly, cells were detached by treatment with 0.25% trypsin/EDTA (Invitrogen) and an aliquot of 1 × 10^4 cells was placed in each well of a 96-well cell culture plate […]. The cells were allowed to attach overnight and subsequently treated with different concentrations of the 14 compounds. Each of the studied samples was immediately added in varying concentrations in additional 100 μL of culture medium to obtain a total volume of […]/well. After 72 h incubation in humidified 5% CO2 atmosphere at 37 °C, the medium was removed and 200 μL fresh medium containing 50 μg/mL NR was added to each well and incubation continued for an additional 3 h at 37 °C in 5% CO2 atmosphere. The dye medium was then removed and each well was then washed rapidly with 200 μL phosphate buffer saline (PBS) followed by addition of 200 μL of acetic acid-water-ethanol in water (1:49:50). The plates were kept for 15 min at room temperature to extract the dye and then shaken for a few minutes on a GFL 3012 shaker (Gesellschaft für Labortechnik mbH, Burgwedel, Germany). Absorbance was measured on ELx 808 Ultra Microplate Reader (Biotek) equipped with a 540 nm filter. Each assay was done at least three times, with three replicates each. The viability was evaluated based on a comparison with untreated cells. The IC50 values represent the sample’s concentrations required to inhibit 50% of cell proliferation and were calculated from a calibration curve by linear regression using Microsoft Excel.
# [2] = tested on: caspase 3/7 in MCF-7 cells; assay: Caspase-Glo 3/7 assay; assay type: cell-based, human; conditions: IC50 and 2-fold IC50, 6 h (data not shown)
# Experimental: (§3) Caspases activity in MCF-7 cells was detected using Caspase-Glo 3/7 and Caspase-Glo 9 Assay kits (Promega, Mannheim, Germany) as previously reported. […] Luminescence was measured using an BioTek Synergy™ HT multi-detection microplate reader. Caspase activity was expressed as percentage of the untreated control.
# [3] = tested on: HepG2 hepatocarcinoma cells; assay: Neutral red (NR) uptake cytotoxicity assay, HepG2; assay type: cell-based, human; conditions: for IC50: Homo sapiens, HepG2, neutral red assay, 72 h incubation, read-out: IC50 HepG2; for selectivity index HepG2: IC50 in CRL2120 normal fibroblasts divided by IC50 in HepG2
# Description: as §1, §2
# [4] = tested on: SPC212 human mesothelioma cell line; assay: Neutral red (NR) uptake cytotoxicity assay, SPC212; assay type: cell-based; conditions: for selectivity index SPC212: IC50 in CRL2120 normal fibroblasts divided by IC50 in SPC212
# Description: as §1, §2
# [5] = tested on: Caco2 colorectal adenocarcinoma cells; assay: Neutral red (NR) uptake cytotoxicity assay, Caco-2; assay type: cell-based, human; conditions: Homo sapiens, Caco-2; neutral red assay, 72 h incubation
# Description: as §1, §2
# [6] = Neutral red (NR) uptake cytotoxicity assay, Caco-2; assay type: cell-based, human; conditions: human; IC50 in CRL2120 normal fibroblasts divided by IC50 in Caco-2; read-out: selectivity index Caco-2 (converted)
# Description: as §1, §2
# [7] = tested on: normal CRL2120 human skin fibroblasts; assay: Neutral red (NR) uptake cytotoxicity assay, normal CRL2120 fibroblasts; assay type: cell-based; conditions: Skin fibroblast, 72 h incubation
# Description: as §1, §2
# MCF-7 cells [8] = assay: Flow cytometry cell cycle analysis and detection of apoptotic cells; assay type: cell-based, human; conditions: for Sub-G0/G1 (apoptotic) cells, % of cells: non-treated cells 3.1%; for cell cycle arrest: ¼ × IC50 to IC50, 72 h
# Experimental: The cell-cycle analysis was performed by flow cytometry using BD cycletest^TM Plus DNA Kit Assay (BD Biosciences, San Jose, USA). The BD Cycletest™ Plus DNA kit provides a set of reagents for isolating and staining cell nuclei. Flow cytometric analysis of differentially stained cells is used to estimate the DNA index (DI) and cell-cycle phase distributions. Briefly, MCF-7 cells (3 mL, 1 × 10^5 cells/mL) were seeded into each well of 6-well plates and allowed to attach for 24 h. […] The untreated cells (control) were also included in the assay. They were further trypsinized and suspended in 1 mL PBS, then centrifuged at 400 g for 5 min at room temperature (RT). The cells were further processed according to the manufacturer protocol: addition of 250 μL of solution A (trypsin buffer), 10 min incubation at RT followed by the addition of 200 μL of solution B (trypsin inhibitor and RNAse buffer), 10 min incubation at RT followed by the addition of 200 μL of solution C (2–8 °C) (propidium iodide stain solution), 10 min on ice. The cells were further measured on a BD FACS Aria I Cell Sorter Flow Cytometer (Becton-Dickinson, Germany). For each sample, 10^4 cells were counted. For PI excitation, an argon-ion laser emitting at 488 nm was used. Cytographs were analyzed using BD FACSDiva™ Flow Cytometry Software Version 6.1.2 (Becton-Dickinson).
# MCF-7 cells [9] = assay: Mitochondrial membrane potential (MMP) analysis, JC-1 staining, flow cytometry; assay type: cell-based, human; conditions: IC50 (C3), 72 h, control 4.3%
# Experimental: The MMP was analyzed in MCF-7 cells by 5,5′,6,6′-tetrachloro-1,1′,3,3′-tetraethylbenzimidazolylcarbocyanine iodide) (JC-1; Biomol, Hamburg, Germany) staining as previously reported. […] Subsequently, cells were measured in a BD FACS Aria I Cell Sorter Flow Cytometer (Becton-Dickinson, Germany). The JC-1 signal was measured at an excitation of 561 nm (150 mW) and detected using a 586/15 nm band-pass filter. The signal was analyzed at 640 nm excitation (40 mW) and detected using a 730/45 nm bandpass filter. Cytographs were analyzed using BD FACSDiva™ Flow Cytometry Software Version 6.1.2 (Becton-Dickinson). All experiments were performed at least in triplicate.
# caspase 9 in MCF-7 cells = assay: Caspase-Glo 9 assay; assay type: cell-based, human; conditions: IC50 and 2-fold IC50, 6 h (data not shown)
# Experimental: as §3
SMILES,"IC50 ([1]; Homo sapiens, bound valid for all six cancer cell lines, neutral red assay) [µM]",activity of caspase 3/7 [2],IC50 [3] [µM],selectivity index HepG2 [3],selectivity index SPC212 [4],IC50 [5] [µM],selectivity ratio at 72 h [6],IC50 [7] [µM],"Sub-G0/G1 (apoptotic) cells, % of cells (MCF-7 cells [8]; 1/4xIC50, 72 h) [%]","Sub-G0/G1 (apoptotic) cells, % of cells (MCF-7 cells [8]; IC50, 72 h) [%]",cell cycle arrest (MCF-7 cells [8]),"MMP, gate P2 (loss / depletion of MMP) (MCF-7 cells [9]) [%]",activity of caspase 9 (caspase 9 in MCF-7 cells),"selectivity indexes (CRL2120 vs carcinoma cells), lower bound over the cancer cell lines ([1]; IC50 CRL2120 / IC50 cancer cell line)","IC50 ([4]; Homo sapiens, 72 h, neutral red assay, 72 h incubation, read-out: IC50 SPC212) [µM]"
"CCCCCCCCCCCCCC1=C(O)C(=O)C=C(O)C1=O [Compound 9, 2,5-dihydroxy-3-tridecyl-2,5-cyclohexadiene-1,4-dione]",< 100,no modification,32.7 ± 0.61,2.91,41.96,22.95 ± 0.13,4.15,95.2 ± 6.65,34.8,43.2,cell cycle arrest between G0/G1 and S phases,88.1,no modification,,
"CC1=CC(=O)c2c(O)cccc2C1=O [Compound 4, 5-hydroxy-2-methyl-1,4-naphthalenedione]",,no modification,1.01 ± 0.08,66.99,250.59,0.07 ± 0.01,967,67.7 ± 6.49,10.4,20.4,cell cycle arrest between G0/G1 and S phases,12.2,no modification,> 59,0.27 ± 0.01
